# Experimental data from ChEMBL document CHEMBL5584269 (Bioorg Med Chem Lett, 2024).
# Active and inactive are the calls of the source. The calls are words filed in the database; no cut-off is given here.
# Key:
# Trypanosoma cruzi = experiment: Antitrypanosomal activity against epimastigote form of Trypanosoma cruzi CL Brener assessed as reduction in parasite growth incubated for 72 hrs by alamar blue dye based fluorescence analysis; assay type: functional, organism-based
# Trypanosoma brucei [1] = experiment: Antitrypanosomal activity against bloodstream trypomastigote form of Trypanosoma brucei Lister 427 assessed as reduction in parasite growth incubated for 72 hrs by alamar blue dye based fluorescence analysis; assay type: functional, organism-based; conditions: Lister 427, 72 h
# Leishmania major [2] = experiment: Antileishmanial activity against promastigote form of Leishmania major Freidlin assessed as reduction in parasite growth incubated for 72 hrs by alamar blue dye based fluorescence analysis; assay type: functional, organism-based
# Leishmania donovani [3] = experiment: Antileishmanial activity against promastigote form of Leishmania donovani assessed as reduction in parasite growth incubated for 72 hrs by alamar blue dye based fluorescence analysis; assay type: functional, organism-based
# HeLa = experiment: Cytotoxicity against human HeLa cells incubated for 72 hrs by alamar blue cell viability assay; assay type: functional, cell-based
# THP-1 = experiment: Cytotoxicity against human THP-1 cells incubated for 72 hrs by alamar blue cell viability assay; assay type: functional, cell-based; conditions: THP-1, 72 h
# Leishmania donovani [4] = experiment: Antileishmanial activity against Leishmania donovani axenic amastigotes assessed as reduction in parasite growth incubated for 72 hrs by alamar blue dye based fluorescence analysis; assay type: functional, organism-based
# Leishmania donovani [5] = experiment: Antileishmanial activity against Leishmania donovani amastigotes infected in human THP-1 cells assessed as reduction in parasite growth incubated for 72 hrs by alamar blue dye based fluorescence analysis; assay type: functional, organism-based; conditions: THP-1, 72 h
# [6] = Selectivity ratio of EC50 for antileishmanial activity against Leishmania donovani amastigotes infected in human THP-1 cells to EC50 for cytotoxicity against human THP-1 cells; assay type: functional
# Trypanosoma brucei [7] = experiment: Induction of morphological change in bloodstream trypomastigote form of Trypanosoma brucei Lister 427 assessed as appearance of swollen cells at EC10 incubated for 48 hrs by DAPI staining based immunofluorescence analysis; assay type: functional, organism-based
# Trypanosoma brucei [8] = experiment: Induction of morphological change in bloodstream trypomastigote form of Trypanosoma brucei Lister 427 assessed as reduction in cytokinesis at EC10 incubated for 48 hrs by DAPI staining based immunofluorescence analysis; assay type: functional, organism-based
# Leishmania major [9] = experiment: Induction of morphological change in promastigote form of Leishmania major Freidlin assessed as increase in intracellular vesicles at EC10 incubated for 48 hrs by DAPI staining based immunofluorescence analysis; assay type: functional, organism-based
SMILES,EC50 (Trypanosoma cruzi) [µM],EC50 (Trypanosoma brucei [1]) [µM],EC50 (Leishmania major [2]) [µM],EC50 (Leishmania donovani [3]) [µM],EC50 (HeLa) [µM],EC50 (THP-1) [µM],EC50 (Leishmania donovani [4]) [µM],EC50 (Leishmania donovani [5]) [µM],Ratio EC50 [6],Activity (Trypanosoma brucei [7]),Activity (Trypanosoma brucei [8]),Activity (Leishmania major [9])
COC(=O)[C@@H]1CCCN1C(=O)CCS,14.9,20.3,7.02,5.77,> 250,,,,,,,
COC(=O)[C@@H]1CCCN1C(=O)[C@H](C)CSCc1ccccc1,30,32.9,8.65,3.98,> 250,,,,,,,
CC1CS(=O)(=O)CCN1/N=C/c1ccc([N+](=O)[O-])o1 (configuration not stated) [NIFURTIMOX],3.11,,,,,,,,,,,
CC(C)(C)C(=O)N1CCC[C@H]1C(=O)O,70.9,61.5,20.4,19.9,> 250,,,,,,,
CC(C)C(=O)N1CCC[C@@H]1C(=O)O,59.7,9.9,4.11,4.8,> 250,,,,,,,
CSCCC(=O)N1CCC[C@H]1C(=O)O,35.2,28.2,16.8,13.5,> 250,,,,,,,
CCCCCCCCCCCCCCCCOP(=O)([O-])OCC[N+](C)(C)C [MILTEFOSINE],,,5.31,5.82,,> 250,2.67,5.97,,,,
O=C(O)[C@H]1CCCN1C(=O)Cc1ccccc1,> 200,> 200,104,98.4,> 250,,,,,,,
CSCCC(=O)N1CCC[C@@H]1C(=O)O,39.1,9.7,4.81,4.27,> 250,,,,,,,
COC(=O)[C@@H]1CCCN1C(=O)C(C)C,53.9,9.85,4.51,7.02,> 250,,,,,,,
O=C(O)[C@H]1CCCN1C(=O)CCS,18.2,16.7,6.06,4.59,> 250,,,,,,,
CC(C)CC(=O)N1CCC[C@H]1C(=O)O,17.4,2.46,2.26,2.03,> 250,,,,,,,
COC(=O)[C@@H]1CCCN1C(=O)CC(C)C,14.2,1.95,1.97,1.63,> 250,> 250,0.97,2.23,50,Active,Active,Active
COC(=O)[C@@H]1CCCN1C(=O)Cc1ccccc1,44.1,38,12.4,11.7,> 250,,,,,,,
CSC[C@@H](C)C(=O)N1CCC[C@H]1C(=O)O,30.2,26.3,11.6,8.64,> 250,> 250,2.14,4.21,50,,,
COC(=O)[C@H]1CCCN1C(=O)CCSC,33.6,5.94,3.1,2.68,> 250,,,,,,,
O=C(O)[C@H]1CCCN1C(=O)CCSCc1ccccc1,71.2,5.9,39.6,39.8,> 250,,,,,,,
COC(=O)[C@H]1CCCN1C(=O)CCSCc1ccccc1,60.2,4.11,35.7,33.9,> 250,,,,,,,
